Several values for one entry are separate records, joined by “and”; a condition that tells them apart may be missing. Identical values can stand only once. Like-named read-outs stand apart in the source and are kept apart here. Ends that are not written are not given here.

The test system of series [1] is middle cerebral artery occlusion (MCAO) mouse model. Kind of series: Middle cerebral artery occlusion (MCAO) mouse model, 1 hour ischemia and 24 hours reperfusion. The series is classed as in vivo, C57BL/6 mice. As to conditions: 1 or 5 mg/kg IV single dose. The protocol:
The MABP and heart rate was recorded using a Visitech System blood pressure monitor.
All animals were subjected to 1.0 h ischemia followed by 24 h reperfusion. […] Vehicle control received saline solution.
This study involved a transient model of ischemia. […] After the nylon suture was in place for 1 hour, it was pulled back into the ECA and the incision closed.
. The brains were transcardially perfused with 4 degree C., 10% phosphate-buffered saline (PBS). The brains were removed and chilled for 15 minutes at −20 degree C. before being placed in a Rodent Brain Matrix. Coronal sections (1-mm thickness) were prepared and subjected to 2% triphenyltetrazolium chloride (TTC) staining at 37 degree C. Seven serial one-mm thick coronal sections through the rostral to caudal extent of the infarction were obtained from each brain, beginning two-mm from the frontal pole. The TTC stained sections were placed in 10% neutral buffered formalin and kept in darkness at 4° C. for at least 24 hours. The infarct area in each section was determined with a computer-assisted image analysis system, consisting of a Power Macintosh computer equipped with a Quick Capture frame grabber card, Hitachi CCD camera mounted on an Olympus microscope and camera stand. NIH Image Analysis Software, v. 1.55 was used. The images were captured and the total area of damage determined over the seven sections.

The next series relates to SH-SY5Y cells. Kind of series: Cell culture model of Parkinson's disease: SH-SY5Y cell viability (MTT) with or without salsolinol. It is filed as cell-based, human. As to conditions: 24 h. As for the experimental part: SH-SY5Y cells were purchased from American Type Culture Collection (Manassas, Va.) and cultured in a complete media containing minimum essential media, Hams F-12 media and Hanks Balanced Salt Solution Gibco-BRL) in a ratio of 2:1:1. The media also contained 10% fetal bovine serum along with penicillin (50 U/ml) and streptomycin ([…]). The cells were cultured in flasks and kept in a humidified incubator containing 5% CO2 in air at 37° C. The media was changed every 2-3 days.
Prior to manipulation, cultures were assigned to different treatment groups based on a randomized block design.
For cell viability experiments, SH-SY5Y cells (0.5×10^5/well) were cultured in a 96-well cell culture plate and treated with (±) SAL (Sigma, St. Louis, Mo.) alone or along with different concentrations of (GM6) (Genervon), with or without Wortmannin (WRT) (Sigma, St. Louis, Mo.), a phosphatidylinositol-3-kinase (PI-3 kinase) inhibitor, for 24 h. Cell viability was determined by Thiazolyl blue (MTT) assay.

Series [2] deals with primary rat neuronal cell cultures. It is filed as cell-based. The protocol: Sprague Dawley rat cortical neuronal cells were isolated from 18-day-old embryonic fetuses and growth in culture for 12 days. Post mortem CSF from control and various neurological disorders donors were applied to the cultures and examined for neuronal viability. In addition, MNTF was added to the cultures to protect the cells from injury.
Neuronal cultures were prepared from 18-day-old Sprague-Dawley rat fetuses. Fetal rat midbrains were dissected and incubated for 15 min in a solution of 2 mg/mL trypsin in Ca2+- and Mg2+-free Hanks' balanced salt solution (HBSS) buffered with 10 mM HEPES (GIBCO Life Technologies, Paisley, Scotland). The tissue was then exposed for 2 min to soybean trypsin inhibitor (1 mg/mL in HBSS) and rinsed three times in HBSS. Cells were dissociated by trituration and distributed to 96-well or 24-well poly-L-lysine-coated plastic culture plates (Costar, Cambridge, Mass.). Initial plating densities were approximately 160-180 cells/mm2. At the time of plating, each well contained 0.2 ml of DMEM/F12 medium (GIBCO Life Technologies, NY) supplemented with 100 mL/L fetal bovine serum (Sigma Chemicals, St. Louis, Mo.). After a 24-hr period, the DMEM/F12 medium was replaced with 0.15 mL of 2% v/v B-27 Neurobasal medium supplemented with 2 mM GlutaMAX and 0.5% w/v D-(+) glucose (GIBCO Life Technologies). Twice a week, two-thirds of the Neurobasal medium was replaced with freshly prepared medium of the same composition. Cultures were used for neurotoxicity experiments after 12 days in culture. The research investigators at NTS were unaware of the material prior to, during the study and when the preliminary data were presented to the Sponsor (GB).
UCLA Human Brain and Spinal Fluid Resource Center (Los Angeles, Calif.) supplied the post mortem CSF samples from five donors of each of the nine study groups along with identification and clinical diagnosis and neuropathology diagnosis documents. Samples were stored at −170° C. prior to shipment and were shipped with dry ice. The study groups were control (no neurological disorder), Amyotrophic Lateral Sclerosis (ALS), Neuropathy (NP), Multiple Sclerosis (MS), Alzheimer's Disease (AD), Batten's Disease (BD), Huntington's Disease (HD), Parkinson's Disease (PD), and Cerebral Ischemia (stroke).
To test the effects of CSF on neuronal cell survival, CSF was added to the cultures in Neurobasal medium containing 10% CSF. CSF was added to the cultures and examined after 48 hours. Images of cultures were taken and then the cultures were subjected to MTT assay (see below) to determine the % cell death. Additional cultures were incubated with MNTF (100 nM) added to the cultures 2 hours prior to addition of CSF.
MTT assay. Viability of primary neurons was determined as described. The relative number of surviving cells was determined in triplicate using the value for cells stimulated with vehicles as 100%. Cell survival was assessed on the 2nd day of treatment via an MTT assay. MTT (3-[4,5-dimethylthiazol-2-yl]-2,5-diphenyltetrazolium bromide) was diluted to […] in Hanks' solution (Biochrom) and added to cultures for two hours at 37° C. The MTT formazan product was released from the cells by adding dimethylsulfoxide, and measured at 570 nm in an Ultrospect III spectrophotometer (Pharmacia). Relative survival in comparison to untreated controls could then be determined.

With FSRYAR [GM6, FSRYAR], in series [1], the “changes in HR, BP, pO2, pCO2, or pH” value is on record as “no changes”. For the same substance, the “Viability (% Cells) Mean ± SD” value with SH-SY5Y cells (GM6 0.1 mg/ml, no salsolinol, MTT) is 101.2 ± 7.260%; with SH-SY5Y cells (GM6 1 mg/ml, no salsolinol, MTT), 108.0 ± 8.249%; in the series with SH-SY5Y cells (GM6 10 mg/ml + WRT (10 μM), no salsolinol), 93.81 ± 9.246%; with SH-SY5Y cells (GM6 10 mg/ml, no salsolinol, MTT), 119.9 ± 14.01%; in the series with SH-SY5Y cells (Salsolinol 100 μM + GM6 0.1 mg/ml), 66% and 65.85 ± 10.80%; with SH-SY5Y cells (Salsolinol 100 μM + GM6 1 mg/ml), 85% and 85.19 ± 10.18%. Also, the “Viability (% Cells) Mean ± SD” value in the series on SH-SY5Y cells (Salsolinol 100 μM + GM6 10 mg/ml + WRT (10 μM)) was 41.35 ± 10.79%; in the series on SH-SY5Y cells (Salsolinol 100 μM + GM6 10 mg/ml), 95% and 95.57 ± 8.328%. The “% increase (↑) in cell survival” value was 191% in series [2] (AD CSF + 100 nM MNTF vs AD CSF); 175% in series [2] (ALS CSF + 100 nM MNTF vs ALS CSF); 271% in series [2] (HD CSF + 100 nM MNTF vs HD CSF); 246% in series [2] (MS CSF + 100 nM MNTF vs MS CSF); 198% in series [2] (PD CSF + 100 nM MNTF vs PD CSF); 205% in series [2] (Stroke CSF + 100 nM MNTF vs Stroke CSF).

The values above are taken from patent US8673852B2, “Methods of treating neuronal disorders using MNTF peptides and analogs thereof” (Genervon Biopharmaceuticals, LLC, priority 2006, dated 2014).
